According to patent US10772863B2, “Methods of inducing metabolic maturation of human pluripotent stem cells— derived hepatocytes” (priority 2016, dated 2020):
Several values for one entry are separate records, joined by “and”; a condition that tells them apart may be missing. Equal values may be shown once. Entries after “also recorded” stand apart in the source; their conditions may differ. Read-outs that look alike come from different tables or passages of the source.

How the values were obtained:
[1] = tested on: LCA- and MK4-treated hESC-derived hepatocytes
Experimental: Cultured cells were exposed to different concentrations of compounds dissolved in culture medium for 24 hours at 37° C. Cell viability was determined utilizing LIVE/DEAD Cytotoxicity kit (Molecular Probes, Eugene, Oreg.) according to manufacturer instructions. In brief, cultures were incubated with 2 μM Calcein AM and 3 μM ethidium homodimer-1 for 25 minutes. Hydrolysis by functional intracellular esterases causes live cells to fluoresce green, while the punctured membranes of dead cells permit ethidium homodimer-1 to bind DNA and fluoresce red. Cellular viability was calculated by live to dead ratio and normalized to negative control. TC50 values were quantified using GraphPad Prism software (La Jolla, Calif.).
Differentiation was adapted to 96-well plates (General Materials and Experimental Methods above). Cells were exposed to increasing concentrations of compounds on day 16, and viability was quantified using fluorescence Live/Dead staining after 24 hours of exposure (FIG. 4D).

hESC-derived hepatocytes [2] = settings: human, 24 h
Experimental: Quantification of intracellular lipids was performed using LipidTOX™ Green Neutral Lipid Stain (Molecular Probes). […] Staining intensity was normalized to negative control. […] Incubation media was removed and cultures washed with ice-cold PBS containing calcium and magnesium. The number of green CDF particles was normalized to the number of Hoechst nuclei as an indicator of functional bile canaliculi. Particle and nuclei counting was performed utilizing the ImageJ particle analyzer.

hESC-derived hepatocytes [3] = tested on: hESC-derived hepatocytes
Experimental: Toxicological endpoints were evaluated for nine hepatotoxic compounds at TC20 values identified above. Quantitation of apoptotic cells was performed utilizing DeadEnd™ fluorometric TUNEL System (Promega, Madison, Wis.) according to manufacturer instructions. […] Cell were permeabilized and exposed to fluorescein-12-dUTP and terminal deoxynucleotidyl transferase (TdT), dying apoptotic nuclei green. The reaction was subsequently stopped and the cells counterstained for DAPI. A percent apoptotic nucleus was calculated by dividing the number of TUNEL to DAPI positive nuclei.

[4] = tested on: PXR and its CYP2C9 and CYP3A4 target genes
hESC-derived hepatocytes [5] = type: cell-based, human; settings: 50 μM LCA
PXR = PXR (Homo sapiens, UniProt O75469); type: cell-based
Chain of PXR (O75469 whole entry): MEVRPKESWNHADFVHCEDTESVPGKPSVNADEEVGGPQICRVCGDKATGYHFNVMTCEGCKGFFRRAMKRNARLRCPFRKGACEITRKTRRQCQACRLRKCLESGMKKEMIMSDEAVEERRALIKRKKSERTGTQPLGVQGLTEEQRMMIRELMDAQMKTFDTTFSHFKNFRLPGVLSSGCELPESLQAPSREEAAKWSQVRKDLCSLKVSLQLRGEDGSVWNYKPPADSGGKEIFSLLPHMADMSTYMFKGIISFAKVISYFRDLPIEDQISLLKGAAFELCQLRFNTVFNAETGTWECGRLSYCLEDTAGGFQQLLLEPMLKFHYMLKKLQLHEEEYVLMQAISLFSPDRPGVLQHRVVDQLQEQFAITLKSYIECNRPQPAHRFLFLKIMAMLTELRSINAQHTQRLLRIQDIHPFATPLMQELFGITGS
Experimental: (§1) Cultured cells were fixed using 4% paraformaldehyde for 15 minutes at room temperature. […] Following washes, cells were incubated with secondary antibodies for 1 hour at room temperature in blocking buffer (Table 10, hereinbelow). Hoechst staining was performed using bisBenzimide H33342 for 2 minutes. Imaging was performed on a Zeiss LSM 700 confocal microscope.

hESC-derived hepatocytes [6] = type: cell-based, human; settings: LA replaced with 9CLA, with 100 μM OA
hESC-derived hepatocytes [7] = assay: Albumin, AFP and ApoB100 production (ELISA); type: cell-based, human; settings: cells treated with OA and LA; 24-hours treatment with GW9662
Experimental: Culture media samples were collected daily and stored at −80° C. Albumin and AFP concentrations were analyzed using Human Albumin ELISA quantitation set (Bethyl laboratories, Montgomery, Tex.) and Human AFP (alpha-fetoprotein) Quantikine ELISA kit (R&D Systems, Minneapolis, Minn.), according to manufacturer directions. […] Data was normalized to total cellular protein utilizing the Bradford assay.

hESC-derived hepatocytes [8] = assay: qRT-PCR of nuclear receptors, lipid metabolism, albumin and mitochondrial genes after fatty acid treatment; type: cell-based, human
hESC-derived hepatocytes [9] = assay: HSP60 immunofluorescence and CellProfiler analysis of mitochondrial network; type: cell-based, human
Experimental: as §1

[10] = tested on: CYP450 (CYP1A, CYP3A4, CYP2C9); settings: human, 72 h
Experimental: CYP1A activity was evaluated utilizing EROD (ethoxyresorufin-o-deethylase) as previously described (Behnia, 2000). […] Briefly, cultures were incubated with 100 μM BFC (7-benzyloxy-4-trifluoromethylcoumarinat), or 10 μM MFC (7-methoxy-4-trifluoromethylcoumarin) for 1 hour at 37° C. Supernatant samples were collected every 30 minutes for 2.5 hours. The reactions were stopped by collection of the incubation medium. Metabolite conjugates formed via phase II activity were hydrolyzed by incubation of medium samples with β-glucuronidase/arylsulfatase for 2 hours at 37° C. Samples were diluted 1:1 in quenching solution and HFC (7-hydroxy-4-trifluoromethylcoumarin), the respective fluorescent metabolite formation, was measured at the appropriate wavelengths (410/510) and normalized to total protein determined by Bradford.
CYP450 activity was quantified as described above at the end of the stimulation period.

## Cc1c(C)c2c(c(C)c1O)CCC(C)(COc1ccc(CC3SC(=O)NC3=O)cc1)O2 (centres unmarked) [troglitazone]
[1]; human, 24 h
  TC20 concentration used for endpoint assays: 80 µM
hESC-derived hepatocytes [2]
  decrease in number of CDF-positive bile canaliculi compared to control: 13-30 fold
  loss of epithelial polarization: 14 fold

## aflatoxin B1
[1]
  TC20 concentration used for endpoint assays: 2 µM
hESC-derived hepatocytes [3]
  DNA fragmentation compared to control: significant increase

## OC[C@@H](O)[C@@H](O)[C@H](O)[C@H](O)CO [mannitol]
[1]
  toxicity: no adverse effects

## CC(C)=CCC/C(C)=C/CC/C(C)=C/CC/C(C)=C/CC1=C(C)C(=O)c2ccccc2C1=O [MK4, menaquinone-4]
[4]; 10 μM, final maturation step
  PXR expression induction: 1.9 fold

## C[S+](C)[O-] [DMSO, Dimethyl sulfoxide]
[4]; human, hepatocytes, 2 %
  CYP450 gene expression: increased expression of all CYP450 enzymes measured
  increase in expression of PXR and most CYP450 enzymes checked: 2-6 fold

## C[C@H](CCC(=O)O)[C@H]1CC[C@H]2[C@@H]3CC[C@@H]4C[C@H](O)CC[C@]4(C)[C@H]3CC[C@]12C [LCA, lithocholic acid]
hESC-derived hepatocytes [5]
  toxicity to differentiating cells: mild toxicity

## CCCCCC/C=C/C=C\CCCCCCCC(=O)O [9CLA, cis-9,trans-11-octadecadienoic acid]
PXR; 100 μM each, 9CLA replaces LA, with OA
  increase in PXR nuclear localization compared to untreated cells: 50%
PXR; with OA
  additional increase in PXR nuclear localization when LA is replaced with 9CLA: 30% and 40%
hESC-derived hepatocytes [6]
  mitochondrial respiration relative to primary human hepatocytes: 60%
[4]; hepatocytes
  CYP3A4 and CYP2C9 gene expression: increased significantly

## COc1ccc2[nH]cc(CCNC(C)=O)c2c1 [melatonin]
[1]
  toxicity: clear toxicity
[1]; human, 24 h
  TC50: 700 ± 200 µM
hESC-derived hepatocytes [2]
  increase in intracellular lipids compared to control: 30 fold
  intracellular lipid accumulation: significant (P<0.006) increase
hESC-derived hepatocytes [3]
  effect on cell viability: not affecting

## O=C(O)Cc1ccccc1Nc1c(Cl)cccc1Cl [diclofenac]
[1]; human
  TC20 concentration used for endpoint assays: 300 µM
hESC-derived hepatocytes [3]
  DNA fragmentation compared to control: significant increase
hESC-derived hepatocytes [3]; human, 24 h
  increase in percent of apoptotic nuclei compared to control: 3-4 fold

## O=C(Nc1ccccc1)c1cc([N+](=O)[O-])ccc1Cl [GW9662]
PXR; fatty acid treated cells
  effect on PXR nuclear localization: down-regulated; also recorded: significant decrease
hESC-derived hepatocytes [7]
  effect on albumin secretion / albumin gene expression and production: significant decrease; also recorded: blocked
hESC-derived hepatocytes [8]; 24-hours treatment, OA and LA treated cells
  effect on expression of genes involved in lipid metabolism: inhibited
hESC-derived hepatocytes [8]; fatty acid treated cells
  PGC1, MFN2 and FIS1 gene expression: decrease
hESC-derived hepatocytes [9]
  effect on fatty acid induced elongation and narrowing of mitochondria: reversed the effect
[4]; fatty acid treated cells
  CYP3A4 and CYP2C9 gene expression: down-regulated

## CC(=O)Oc1ccccc1C(=O)O [acetylsalicylic acid]
[1]; human, 24 h
  TC20 concentration used for endpoint assays: 2000 µM
hESC-derived hepatocytes [2]
  increase in intracellular lipids compared to control: 25-26 fold

## CN(C)CCCN1c2ccccc2Sc2ccc(Cl)cc21 [chlorpromazine]
[1]; human, 24 h
  TC20 concentration used for endpoint assays: 45 µM
hESC-derived hepatocytes [2]
  decrease in number of CDF-positive bile canaliculi compared to control: 13-30 fold
  loss of epithelial polarization: 14 fold

## CCCC(CCC)C(=O)O [valproic acid]
hESC-derived hepatocytes [2]
  increase in intracellular lipids compared to control: 25-26 fold

## CC1CCC(C(C)C)C(O)C1 (centres unmarked) [menthol]
[1]
  toxicity: no adverse effects

## COc1ccc2[nH]c([S+]([O-])Cc3ncc(C)c(OC)c3C)nc2c1 (centres unmarked) [Omeprazole, omeprazole]
[10]
  induction of BFC metabolism: 3 fold
[10]; 50 μM
  induction of EROD metabolism: 9 fold
[10]; hepatocytes, 50 μM
  induction of CYP450 activity: preferentially induced CYP1A
